Laboratory results from US20220402917A1, “COMPOUND AS SMALL MOLECULE INHIBITOR PD-1/PD-L1 AND APPLICATION THEREOF” (MEDSHINE DISCOVERY INC., priority 2019, published 2022).

Assays:
[1] = target: T1, PD-L1 in MDA-MR-231 cells (Homo sapiens, UniProt Q9NZQ7); test: Effect on expression level of PD-L1 in MDA-MR-231 cells (FACS); type: cell-based; conditions: 24 hours incubation, FACS detection of cell surface PD-L1
T1 construct: endogenous in cells; host or cells: MDA-MB-231
Protocol: Experimental Example 2: Using MDA-MR-231 Cells to Detect the Effect of Compounds on the Expression Level of PD-L1
The use of a triple-negative breast cancer cell line (MDA-MB-231) is an indirect method to assess PD-L1 endocytosis. PD-L1 molecules on the cell surface can be degraded by lysosomal and proteasome pathways, and small molecule inhibitors are added to induce PD-L1 endocytosis. After co-incubating small molecules with MDA-MB-231 cells for 24 hours, flow cytometry (Fluorescence-activated Cell Sorting, FACS) is used to detect the content of PD-L1 on the cell surface, which can indirectly reflect the effect of small molecule-induced PD-L1 endocytosis. Flow cytometry (FACS) is used to detect the effect of the compounds of the present disclosure on the expression level of PD-L1 in MDA-MR-231 cells.
Phosphate buffer (DPBS), 1640 medium, penicillin-streptomycin, fetal bovine serum, non-essential amino acids, 2-hydroxy-1-ethanethiol (2-ME), human interferon γ, LIVE/DEAD staining solution, staining buffer, fixation buffer, 0.25% trypsin, EDTA, anti-human PD-L1, anti-human PD-L1 isotype.
1640 complete medium preparation: 50 mL of fetal bovine serum, 5 mL of non-essential amino acids, 5 mL of penicillin-streptomycin and 0.5 mL of 2-hydroxy-1-ethanethiol were added to 439.5 mL of 1640 medium, and evenly mixed.
10 mM EDTA preparation: 1 mL of 0.5M EDTA was added to 49 mL of DPBS, and evenly mixed.
1) MDA-MB-231 cell counting and plating: The culture flask was taken out, the medium was removed and the culture flask was rinsed once with DPBS. After the culture flask was rinsed, 3 mL of 0.25% trypsin was added to the culture flask and the culture flask was placed in a 37° C. incubator for 1.5 min. The culture flask was taken out, 9 mL of 1640 complete medium was added to stop the reaction, the cells was transferred to a 50 mL centrifuge tube, and centrifuged at 1000 rpm for 5 min at 37° C. An appropriate volume of medium was added to re-suspend the cells according to the number of cells, and the number of cells was counted with a cell counter. The cell concentration was adjusted to 5×10^5 cells/mL with medium. Planking: A volume of 200 μL of cell suspension was added to each well of a 96-well plate, ensure that the number of cells in each well was 1×10^5. The cells were incubated overnight in an incubator. 2) Drug incubation: 100-fold dilution of compounds were prepared, and the drug was subjected to a 5-fold gradient dilution. 2 μL of each 100-fold dilution of compounds were added to each well. The cells were incubated in an incubator at 37° C. for 24 hours. 3) PD-L1 cell staining and FACS detection: the culture plate was taken out and the supernatant medium was discarded. The cells were washed once with 200 μL 1×PBS. 100 μL of EDTA (final concentration of 10 mM) was added to the cell suspension, and the cell suspension was treated at 37° C. for 10 min. Then after the cell suspension was centrifuged at 1500 rpm for 5 min, the cell suspension was washed once with 200 μL of staining solution. Staining: anti-human PD-L1 (2 μL per well) and LIVE/DEAD staining solution (1:1000) were diluted in staining solution, 50 μL of the staining solution was added to each well, and the staining was conducted at 4° C. for 30 min. Then the solution was washed twice with 200 μL of staining solution. Fixation: 100 μL of fixing solution was added to each well, the fixation was conducted at 4° C. for 15 min. The solution was then washed twice with 200 μL of staining solution, and 150 μL of solution was added to re-suspend the cells, followed by FACS detection.
Table 2 provides the effects of the compounds of the examples of the present disclosure on the expression level of PD-L1 in MDA-MR-231 cells.

PD1/PD-L1 = PD1/PD-L1 (Homo sapiens, UniProt Q9NZQ7); test: NFAT activity test (TCR Activitor/PD-L1 CHO cells with PD-1/NFAT Reporter-Jurkat cells); type: cell-based; set-up: host or cells: TCR Activitor/PD-L1 CHO cells; PD-1/NFAT Reporter-Jurkat cells; conditions: TCR Activitor/PD-L1 CHO cells + PD-1/NFAT Reporter-Jurkat cells, 5 hours, luciferase; for IC50: read-out: IC50, inhibitory activity on PD1/PD-L1 binding (NFAT activity test)
Chain of PD1/PD-L1 (Q9NZQ7 19-290): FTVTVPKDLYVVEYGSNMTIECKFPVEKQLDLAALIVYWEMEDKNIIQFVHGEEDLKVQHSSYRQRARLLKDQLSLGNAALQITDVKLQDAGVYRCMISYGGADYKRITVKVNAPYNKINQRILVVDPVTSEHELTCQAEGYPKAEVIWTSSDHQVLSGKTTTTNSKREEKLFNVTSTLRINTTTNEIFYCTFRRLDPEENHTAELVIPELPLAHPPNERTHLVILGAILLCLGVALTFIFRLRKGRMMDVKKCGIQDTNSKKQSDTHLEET
Text: Experimental Example 3: NFAT Activity Test
The engineered T cell expresses PD-1 molecules and T cell receptor (TCR) on the surface, which can activate the NFAT signaling pathway of T cells after co-culturing with engineered antigen presenting cells (APCs). Expression of PD-L1 molecules on APCs can effectively attenuate the NFAT signaling pathway in T cells. PD-L1 inhibitors can be used effectively block the PD-1/PD-L1 regulatory mechanism, thereby reversing the weakened NFAT signaling pathway. After being pretreated with APC, the small molecule is co-cultured with T cells, then the expression of luciferase was detected to indirectly reflect the activation of the NFAT pathway in T cells.
The PD1/PD-L1 NFAT detection kit was purchased from BPS Biosciences. Birght-Glo reagent was purchased from Promega. Nivo multi-label analyzer (PerkinElmer).
The TCR Activitor/PD-L1 CHO cells with a growth confluence of 80% were plated into the plate at 35,000 cells per well and placed in a 37° C. cell culture incubator overnight; the compounds to be tested were diluted 5-fold to the 8th concentration, from 20 μM to 0.25 nM, and the DMSO concentration was 2%, a double-well experiment was set up. The TCR Activitor/PD-L1 CHO cell supernatant was discarded, 50 μl of compound working solution was added to each well, incubated at 37° C. for 30 minutes; after the incubation was completed, 50 μL of PD-1/NFAT Reporter-Jurkat cell suspension with a concentration of 4*10^5 cells/mL was added to each well, incubated at 37° C. for 5 hours. After the incubation was completed, 100 μL Bright-Glo was added to each well, and after mixing, the chemiluminescence signal was detected by a Nivo multi-label analyzer.
Using the equation (sample−Min)/(Max−Min)×100% to convert the raw data into inhibition rate, and the IC50 value can be obtained by curve fitting with four parameters (obtained from log(inhibitor) vs. response—Variable slope mode in GraphPad Prism). Table 3 provides the inhibitory activity of the compounds of the examples of the present disclosure on PD1/PD-L1 binding.

T1 sequence (Q9NZQ7 19-290): as above

Structure (SMILES) | IC50 [1] [nM] | Maximum effect (induction fold) (PD1/PD-L1) | IC50 (PD1/PD-L1) [nM]
Cc1cc(C(=O)Nc2cccc(-c3cccc(NC(=O)c4ccc(CNCCO)cn4)c3Cl)c2Cl)nc2c1CCN(CCO)C2 [Compound 5] | 32.7 | 3.68 | 16.2
Cc1cc(C(=O)Nc2cccc(-c3cccc(NC(=O)c4ccc(CNCCO)cn4)c3C)c2Cl)nc2c1CCN(CCO)C2 [Compound 9] | 41.1 | 3.77 | 32.6
Cc1cc(C(=O)Nc2cccc(-c3cccc(NC(=O)c4ccc(CNCCO)cn4)c3C)c2Cl)nc2c1CCN(C1CCNCC1)C2 [Compound 14] | 96.9 |  | 
COc1nc(-c2cccc(-c3cccc(NC(=O)c4cc(C)c5c(n4)CN(CC(=O)O)CC5)c3Cl)c2C)cnc1CN1CC(O)C1 [Compound 22] | 79.7 | 3.79 | 58.8
COc1nc(-c2cccc(-c3cccc(NC(=O)c4cc(C)c5c(n4)CN(CCO)CC5)c3Cl)c2Cl)cnc1CN1CC(C)(O)C1 [Compound 25] | 9.97 | 3.39 | 29.2
COc1nc(-c2cccc(-c3cccc(NC(=O)c4cc(C)c5c(n4)CN(C(C)CO)CC5)c3Cl)c2Cl)cnc1CN1CC(O)C1 (centres unmarked) [Compound 27] | 14.6 | 3.48 | 28.9
COc1nc(-c2cccc(-c3cccc(NC(=O)c4cc(C)c5c(n4)CN(CC(O)CO)CC5)c3Cl)c2Cl)cnc1CN1CC(O)C1 (centres unmarked) [Compound 30] | 10.5 | 4.80 | 26.6
COc1nc(-c2cccc(-c3cccc(NC(=O)c4cc(C)c5c(n4)CN(CCO)CC5)c3Cl)c2Cl)cnc1CNCCO [Compound 31] | 8.58 | 4.12 | 22.6
COc1nc(-c2cccc(-c3cccc(NC(=O)c4cc(C)c5c(n4)CN(CCO)CC5)c3Cl)c2Cl)cnc1CN1CCC2(CNC(=O)C2)C1 (centres unmarked) [Compound 32] | 5.53 | 4.93 | 52.2
COc1nc(-c2cccc(-c3cccc(NC(=O)c4cc(C)c5c(n4)CN(CCO)CC5)c3Cl)c2Cl)cnc1CN1CCC(CO)C1 (centres unmarked) [Compound 33] | 6.99 | 4.14 | 18.9
COc1nc(-c2cccc(-c3cccc(NC(=O)c4cc(C)c5c(n4)CN(CCO)CC5)c3Cl)c2Cl)cnc1CN[C@H]1C[C@](C)(O)C1 [Compound 34] | 21.9 | 4.09 | 44.7
COc1nc(-c2cccc(-c3cccc(NC(=O)c4cc(C)c5c(n4)CN(CCO)CC5)c3Cl)c2Cl)cnc1CN1CC(CO)C1 [Compound 35] | 5.18 | 4.44 | 17.5
COc1nc(-c2cccc(-c3cccc(NC(=O)c4nc(C)c5c(n4)CN(CCO)CC5)c3Cl)c2Cl)cnc1CN1CC(O)C1 [Compound 36] | 95.8 | 3.20 | 46.5
COc1nc(-c2cccc(-c3cccc(NC(=O)c4cc(C)c5c(n4)CN(CCO)CC5)c3Cl)c2Cl)ccc1CN1CC(O)C1 [Compound 37] | 28.1 |  | 
COc1nc(-c2cccc(-c3cccc(NC(=O)c4cc(C)c5c(n4)CN(CCO)CC5)c3Cl)c2Cl)cnc1CNCC1CCC(=O)N1 (centres unmarked) [Compound 38] | 8.86 | 4.40 | 50.8
COc1nc(-c2cccc(-c3cccc(NC(=O)c4cc(C)c5c(n4)CN(CCO)CC5)c3Cl)c2Cl)cnc1CN1CC2(CC(O)C2)C1 [Compound 39] | 5.52 | 4.62 | 11.9
COc1nc(-c2cccc(-c3cccc(NC(=O)c4cc(C)c5c(n4)CN(CCO)CC5)c3Cl)c2Cl)cnc1CN1CCCC1CO (centres unmarked) [Compound 40] | 22.5 | 3.72 | 46.1
COc1cc(C(=O)Nc2cccc(-c3cccc(-c4cnc(CN5CC(O)C5)c(OC)n4)c3Cl)c2Cl)nc2c1CCN(CCO)C2 [Compound 41] | 5.27 | 3.50 | 29.2
COc1nc(-c2cccc(-c3cccc(NC(=O)c4cc(C#N)c5c(n4)CN(CCO)CC5)c3Cl)c2Cl)cnc1CN1CC(O)C1 [Compound 45] | 7.81 | 4.37 | 45.4
COc1nc(-c2cccc(-c3cccc(NC(=O)c4cc(C(F)(F)F)c5c(n4)CN(CCO)CC5)c3Cl)c2Cl)cnc1CN1CC(O)C1 [Compound 46] | 22.6 | 5.56 | 571
COc1nc(-c2cccc(-c3cccc(NC(=O)c4cc(C)c5c(n4)CN(CCO)CC5)c3C#N)c2Cl)cnc1CN1CC(O)C1 [Compound 47] | 37.2 | 4.01 | 52
COc1nc(-c2cccc(-c3cccc(NC(=O)c4cc(OC(F)F)c5c(n4)CN(CCO)CC5)c3Cl)c2Cl)cnc1CN1CC(O)C1 [Compound 48] | 8.93 | 3.80 | 21.2
COc1nc(-c2cccc(-c3cccc(NC(=O)c4cc(C)c5c(n4)CN(CCC(C)O)CC5)c3Cl)c2Cl)cnc1CN1CC(O)C1 (centres unmarked) [Compound 49] | 33.8 | 5.30 | 175
COc1nc(-c2cccc(-c3cccc(NC(=O)c4cc(OCc5cncc(C#N)c5)c5c(n4)CN(CCO)CC5)c3Cl)c2Cl)cnc1CN1CC(O)C1 [Compound 51] | 25.8 | 4.28 | 47.9
